Laboratory results published in article PMC10983009 (Journal of Medicinal Chemistry, 2024).
Where “and” joins values, the source holds several entries; their conditions need not be identical. Equal values may be shown once. Read-outs that look alike come from different tables or passages of the source. Marks after values point to notes of the source that are not given here. Blank lines part the entries; values can stand above or below the compound they belong to.

What was measured:
[1] = compound remaining, literature value; cited from earlier work
[2] = compound remaining, literature value; cited from earlier work; remark: listed apart in the source
Caco-2 cells = conditions: literature value, cited from earlier work
DDR1(h) = DDR1(h) (Homo sapiens, UniProt Q08345); conditions: at 1 μM; cited from earlier work
TNIK(h) = TNIK(h) (Homo sapiens, UniProt Q9UKE5); conditions: at 1 μM; cited from earlier work
[3] = In vivo PK exposure in mouse model; conditions: male, NOD-SCID, po, 25 mg/kg
[4] = biological target: Full Kinase Panel (422-member kinase set); experiment: Eurofins Full Kinase Panel KinaseProfiler, whole panel; assay type: biochemical; conditions: at 1 μM
[5] = Liver microsomal metabolic stability assay; assay type: in vitro ADME, CD-1 mouse (male); conditions: compound remaining after 60 min at 37 °C, 1 μM
[6] = Liver microsomal metabolic stability assay; assay type: in vitro ADME, human; conditions: compound remaining after 60 min at 37 °C, 1 μM
[7] = Caco-2 permeability assay; assay type: in vitro ADME; conditions: human, Caco-2, pH 7.4
ALK4/ACVR1β = biological target: T1, ALK4/ACVR1β (Homo sapiens, UniProt P36896); experiment: Radiometric in vitro kinase assay
T1 sequence (P36896 24-505): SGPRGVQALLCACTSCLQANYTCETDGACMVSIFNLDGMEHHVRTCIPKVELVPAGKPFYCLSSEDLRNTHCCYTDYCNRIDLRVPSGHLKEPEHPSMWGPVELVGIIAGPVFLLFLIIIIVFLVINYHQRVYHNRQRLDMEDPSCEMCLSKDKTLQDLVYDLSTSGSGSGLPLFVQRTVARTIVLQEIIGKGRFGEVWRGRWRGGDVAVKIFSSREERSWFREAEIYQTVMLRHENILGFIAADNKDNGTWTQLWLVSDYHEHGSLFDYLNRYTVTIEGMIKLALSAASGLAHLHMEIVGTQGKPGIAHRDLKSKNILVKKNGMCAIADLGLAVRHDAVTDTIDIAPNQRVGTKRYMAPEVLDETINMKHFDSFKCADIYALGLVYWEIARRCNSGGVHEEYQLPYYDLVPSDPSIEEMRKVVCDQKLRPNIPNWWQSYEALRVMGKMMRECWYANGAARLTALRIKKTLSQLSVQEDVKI

[8] = test system: H3.3K27M, ACVR1^R206H mutant HSJD-DIPG-007 cells; conditions: 25 mg/kg for 28 days; cited from earlier work

TNIK(h), sequence (Q9UKE5 whole entry): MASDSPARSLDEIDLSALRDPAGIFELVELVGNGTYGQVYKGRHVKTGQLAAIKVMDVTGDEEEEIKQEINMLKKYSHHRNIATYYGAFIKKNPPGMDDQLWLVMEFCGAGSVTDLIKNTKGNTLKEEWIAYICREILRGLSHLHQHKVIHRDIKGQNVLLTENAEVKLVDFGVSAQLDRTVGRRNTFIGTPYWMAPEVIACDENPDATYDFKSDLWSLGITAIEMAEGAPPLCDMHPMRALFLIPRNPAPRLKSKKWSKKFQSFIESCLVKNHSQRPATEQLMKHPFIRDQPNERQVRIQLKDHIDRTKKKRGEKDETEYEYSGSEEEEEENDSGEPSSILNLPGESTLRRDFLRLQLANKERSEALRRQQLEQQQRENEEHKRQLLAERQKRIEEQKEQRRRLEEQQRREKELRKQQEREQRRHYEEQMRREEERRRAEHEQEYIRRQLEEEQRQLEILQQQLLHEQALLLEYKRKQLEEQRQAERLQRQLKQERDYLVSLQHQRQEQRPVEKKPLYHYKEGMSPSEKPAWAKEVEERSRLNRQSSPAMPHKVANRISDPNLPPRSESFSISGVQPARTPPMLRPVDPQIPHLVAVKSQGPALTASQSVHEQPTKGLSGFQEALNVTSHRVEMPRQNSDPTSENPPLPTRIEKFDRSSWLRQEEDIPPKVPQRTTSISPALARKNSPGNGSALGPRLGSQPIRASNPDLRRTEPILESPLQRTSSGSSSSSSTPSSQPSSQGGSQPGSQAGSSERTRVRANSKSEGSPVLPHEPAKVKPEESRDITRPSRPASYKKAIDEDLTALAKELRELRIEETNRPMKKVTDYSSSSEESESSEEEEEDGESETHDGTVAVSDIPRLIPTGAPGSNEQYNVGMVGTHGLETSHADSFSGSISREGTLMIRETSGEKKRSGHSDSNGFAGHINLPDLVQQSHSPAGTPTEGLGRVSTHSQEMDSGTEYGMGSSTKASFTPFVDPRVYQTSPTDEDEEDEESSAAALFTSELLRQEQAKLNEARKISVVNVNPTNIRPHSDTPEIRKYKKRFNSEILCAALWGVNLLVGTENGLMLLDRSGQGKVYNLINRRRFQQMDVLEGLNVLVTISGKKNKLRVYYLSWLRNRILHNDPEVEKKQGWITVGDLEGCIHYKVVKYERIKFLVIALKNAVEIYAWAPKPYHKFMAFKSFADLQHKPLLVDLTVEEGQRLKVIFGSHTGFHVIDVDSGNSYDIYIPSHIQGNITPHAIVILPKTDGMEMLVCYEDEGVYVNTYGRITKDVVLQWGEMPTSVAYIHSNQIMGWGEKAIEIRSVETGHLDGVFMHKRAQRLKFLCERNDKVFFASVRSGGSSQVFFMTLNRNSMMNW
DDR1(h), sequence (Q08345 19-913): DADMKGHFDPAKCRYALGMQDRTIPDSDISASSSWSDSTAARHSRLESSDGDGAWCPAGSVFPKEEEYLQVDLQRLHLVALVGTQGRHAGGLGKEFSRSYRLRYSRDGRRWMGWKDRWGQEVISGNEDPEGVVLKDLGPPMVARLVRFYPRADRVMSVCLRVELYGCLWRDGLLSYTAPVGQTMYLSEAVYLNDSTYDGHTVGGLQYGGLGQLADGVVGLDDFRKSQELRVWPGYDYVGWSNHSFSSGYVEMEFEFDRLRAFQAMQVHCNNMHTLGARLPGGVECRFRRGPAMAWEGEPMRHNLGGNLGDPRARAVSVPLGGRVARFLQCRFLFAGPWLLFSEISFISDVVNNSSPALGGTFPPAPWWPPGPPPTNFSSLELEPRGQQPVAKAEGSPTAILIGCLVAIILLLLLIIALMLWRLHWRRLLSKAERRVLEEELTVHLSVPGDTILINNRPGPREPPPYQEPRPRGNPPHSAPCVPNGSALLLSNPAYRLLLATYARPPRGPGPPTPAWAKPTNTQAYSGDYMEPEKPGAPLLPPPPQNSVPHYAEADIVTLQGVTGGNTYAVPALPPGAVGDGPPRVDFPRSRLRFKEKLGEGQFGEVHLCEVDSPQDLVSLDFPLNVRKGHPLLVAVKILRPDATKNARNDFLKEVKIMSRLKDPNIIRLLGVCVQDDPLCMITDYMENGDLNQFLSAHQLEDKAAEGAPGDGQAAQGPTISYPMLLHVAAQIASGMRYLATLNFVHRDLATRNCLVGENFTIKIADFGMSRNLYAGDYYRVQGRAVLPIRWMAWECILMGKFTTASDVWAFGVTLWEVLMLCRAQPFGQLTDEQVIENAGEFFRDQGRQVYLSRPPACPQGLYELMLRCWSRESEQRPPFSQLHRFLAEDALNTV

Structure (SMILES): COc1cc(-c2cncc(-c3ccc(N4CCNCC4)cc3)c2C)cc(OC)c1OC [Compound M4K2009]
Microsomal Stability Assay MLM (%) [1]: 65 ^a % and 65% | Microsomal Stability Assay HLM (%) [2]: 71 ^a % and 71% | Caco-2 Permeability Assay Papp_AB (Caco-2 cells; A to B): 5.4 ^a 10^–6 cm/s | Caco-2 Permeability Assay Papp_BA (Caco-2 cells; B to A): 1.5 ^a 10^–6 cm/s | inhibition of DDR1 (DDR1(h)): almost complete inhibition | inhibition of TNIK (TNIK(h)): almost complete inhibition

Structure (SMILES): COc1cc(-c2cncc3c2CCOc2cc(N4CCN(C)CC4)ccc2-3)cc(OC)c1OC [Compound M4K2281, 9-(4-Methylpiperazin-1-yl)-4-(3,4,5-trimethoxyphenyl)-5,6-dihydrobenzo[2,3]oxepino[4,5-c]pyridine]
concentration at 24 h [3]: 0 nM

Structure (SMILES): COc1cc(-c2cc(-c3ccc(N4CCNCC4)cc3)cnc2C)cc(OC)c1OC [LDN-214117]
survival of mice bearing orthotopic xenografts [8]: extended survival

Now from value to compound:

kinases inhibited by more than 50% [4]: 3% | Microsomal Stability Assay MLM (%) [5]: > 70% | Microsomal Stability Assay HLM (%) [6]: > 70% | recovery at 2 h, 5 μM [7]: < 15% | IC50 (ALK4/ACVR1β): 1180 nM
Structure (SMILES): COc1cc(-c2cncc3c2CN(C)Cc2cc(N4CCNCC4)ccc2-3)cc(OC)c1OC [Compound M4K2304, 6-Methyl-9-(piperazin-1-yl)-4-(3,4,5-trimethoxyphenyl)-6,7-dihydro-5H-benzo[c]pyrido[3,4-e]azepine]

recovery at 2 h, 5 μM [7]: < 15%
Structure (SMILES): COc1cc(-c2cncc3c2CN(C)Cc2cc(N4CCN(C)CC4)ccc2-3)cc(OC)c1OC [Compound M4K2306, 6-Methyl-9-(4-methylpiperazin-1-yl)-4-(3,4,5-trimethoxyphenyl)-6,7-dihydro-5H-benzo[c]pyrido[3,4-e]azepine]
